Results as given in patent publication US5210193A, “Piperazine derivatives” (American Cyanamid Company, priority 1990, dated 1993).
In brackets after ≈: the same amount, converted by molar mass. Like-named read-outs stand apart in the source and are kept apart here.

Key:
Experiment in all cases: in vitro antibacterial MIC, agar plate dilution
Format in all cases: cell-based
[1] = system: Escherichia coli VGH 84-19; conditions: Escherichia coli, VGH8419, 18 h, 35° C., read-out: MIC
Method in brief: (§1)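 Agar plate dilution on Mueller-Hinton agar, inoculum approximately 10^4 CFU per organism applied with a Steers replicator. MIC (mcg/ml) is the lowest compound concentration inhibiting visible growth after 18 hours at 35° C.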

[2] = system: Pseudomonas aeruginosa LL-1244; conditions: Pseudomonas aeruginosa, LL1244, 18 h, 35° C., read-out: MIC
Method in brief: as §1

[3] = system: Escherichia coli CMC 84-11; conditions: Escherichia coli, CMC8411, 18 h, 35° C., read-out: MIC
Method in brief: as §1

[4] = system: Klebsiella pneumoniae MOR 84-24; conditions: Klebsiella pneumoniae, MOR8424, 18 h, 35° C., read-out: MIC
Method in brief: as §1

[5] = system: Pseudomonas aeruginosa VGH 84-4; conditions: Pseudomonas aeruginosa, VGH844, 18 h, 35° C., read-out: MIC
Method in brief: as §1

[6] = system: Staphylococcus aureus K 82-26; conditions: Staphylococcus aureus, K8226, 18 h, 35° C., read-out: MIC
Method in brief: as §1

[7] = system: Serratia marcescens CMC 83-74; conditions: Serratia marcescens, CMC8374, 18 h, 35° C., read-out: MIC
Method in brief: as §1

[8] = system: Streptococcus faecalis CMC 83-120; conditions: Enterococcus faecalis, CMC83120, 18 h, 35° C., read-out: MIC
Method in brief: as §1

[9] = system: Serratia marcescens K 84-18; conditions: Serratia marcescens, K8418, 18 h, 35° C., read-out: MIC
Method in brief: as §1

[10] = system: Klebsiella pneumoniae IO 83-5; conditions: Klebsiella pneumoniae, IO835, 18 h, 35° C., read-out: MIC
Method in brief: as §1

[11] = system: Pseudomonas aeruginosa K 84-16; conditions: Pseudomonas aeruginosa, K8416, 18 h, 35° C., read-out: MIC
Method in brief: as §1

[12] = system: Proteus rettgeri IO 83-21; conditions: Providencia rettgeri, IO8321, 18 h, 35° C., read-out: MIC
Method in brief: as §1

[13] = system: Proteus rettgeri CMC 84-41; conditions: Providencia rettgeri, CMC8441, 18 h, 35° C., read-out: MIC
Method in brief: as §1

[14] = system: Serratia marcescens VGH 84-30; conditions: Serratia marcescens, VGH8430, 18 h, 35° C., read-out: MIC
Method in brief: as §1

[15] = system: Enterobacter cloacae MOR 84-30; conditions: Enterobacter cloacae, MOR8430, 18 h, 35° C., read-out: MIC
Method in brief: as §1

[16] = system: Morganella morganii CMC 84-37; conditions: Morganella morganii, CMC8437, 18 h, 35° C., read-out: MIC
Method in brief: as §1

[17] = system: Pseudomonas aeruginosa CMC 83-20; conditions: Pseudomonas aeruginosa, CMC8320, 18 h, 35° C., read-out: MIC
Method in brief: as §1

[18] = system: Staphylococcus aureus ATTC 29213; conditions: 35° C.
Method in brief: as §1

[19] = system: Enterobacter cloacae VGH 84-39; conditions: Enterobacter cloacae, VGH8439, 18 h, 35° C., read-out: MIC
Method in brief: as §1

[20] = system: Staphylococcus aureus CMC 83-131; conditions: Staphylococcus aureus, CMC83131, 18 h, 35° C., read-out: MIC
Method in brief: as §1

[21] = system: Escherichia coli CMC 84-50; conditions: Escherichia coli, CMC8450, 18 h, 35° C., read-out: MIC
Method in brief: as §1

[22] = system: Citrobacter div. K 82-24; conditions: Citrobacter, DIV.K8224, 18 h, 35° C., read-out: MIC
Method in brief: as §1

[23] = system: Escherichia coli LL 311; conditions: Escherichia coli, LL311, 18 h, 35° C., read-out: MIC
Method in brief: as §1

[24] = system: Serratia marcescens MOR 84-41; conditions: Serratia marcescens, MOR8441, 18 h, 35° C., read-out: MIC
Method in brief: as §1

[25] = system: Morganella morganii CMC 84-38; conditions: Morganella morganii, CMC8438, 18 h, 35° C., read-out: MIC
Method in brief: as §1

[26] = system: Streptococcus faecalis UCI 85-19; conditions: Enterococcus faecalis, UCI8519, 18 h, 35° C., read-out: MIC
Method in brief: as §1

[27] = system: Streptococcus faecalis VGH 84-69; conditions: Enterococcus faecalis, VGH8469, 18 h, 35° C., read-out: MIC
Method in brief: as §1

[28] = system: Staphylococcus aureus VGH 84-47; conditions: Staphylococcus aureus, VGH8447, 18 h, 35° C., read-out: MIC
Method in brief: as §1

[29] = system: Staphylococcus aureus VGH 84-45; conditions: Staphylococcus aureus, VGH8445, 18 h, 35° C., read-out: MIC
Method in brief: as §1

[30] = system: Klebsiella pneumoniae CMC 84-31; conditions: Klebsiella pneumoniae, CMC8431, 18 h, 35° C., read-out: MIC
Method in brief: as §1

[31] = system: Escherichia coli ATCC 25922; conditions: 35° C.
Method in brief: as §1

[32] = Staphylococcus aureus, ATTC29213, 18 h, read-out: MIC
[33] = Escherichia coli, ATCC25922, 18 h, read-out: MIC

Structure (SMILES) | MIC [1] | MIC [2] | MIC [3] | MIC [4] | MIC [5] | MIC [6] | MIC [7] | MIC [8] | MIC [9] | MIC [10] | MIC [11] | MIC [12] | MIC [13] | MIC [14] | MIC [15] | MIC [17] | MIC ([18]; 18 hours) | MIC [18, 32] | MIC [19] | MIC [20] | further results
CCn1cc(C(=O)O)c(=O)c2cc(F)c(N3CCNC(c4cccnc4)C3)cc21 (centres unmarked) [Example 122] | 1 µg/mL (≈ 2.52 µM) | 32 µg/mL (≈ 80.7 µM) | 0.25 µg/mL (≈ 0.631 µM) | 4 µg/mL (≈ 10.1 µM) | 32 µg/mL (≈ 80.7 µM) | 1 µg/mL (≈ 2.52 µM) | > 16 µg/mL | 8 µg/mL (≈ 20.2 µM) | 1 µg/mL (≈ 2.52 µM) | 2 µg/mL (≈ 5.05 µM) | > 16 µg/mL | 4 µg/mL (≈ 10.1 µM) | 0.25 µg/mL (≈ 0.631 µM) | 32 µg/mL (≈ 80.7 µM) | 16 µg/mL (≈ 40.4 µM) | > 16 µg/mL | 1 µg/mL (≈ 2.52 µM) | 0.5 µg/mL (≈ 1.26 µM) | 2 µg/mL (≈ 5.05 µM) | 8 µg/mL (≈ 20.2 µM) | MIC [16]: 0.25 µg/mL (≈ 0.631 µM); MIC [21]: 2 µg/mL (≈ 5.05 µM); MIC [22]: 2 µg/mL (≈ 5.05 µM); MIC [23]: 0.25 µg/mL (≈ 0.631 µM); MIC [24]: 4 µg/mL (≈ 10.1 µM); MIC [25]: 1 µg/mL (≈ 2.52 µM); MIC [26]: 4 µg/mL (≈ 10.1 µM); MIC [27]: 8 µg/mL (≈ 20.2 µM); MIC [28]: 1 µg/mL (≈ 2.52 µM); MIC [29]: 0.25 µg/mL (≈ 0.631 µM); MIC [30]: 4 µg/mL (≈ 10.1 µM)
CCn1cc(C(=O)O)c(=O)c2cc(F)c(N3CCNC(c4ccncc4)C3)cc21 (centres unmarked) [Example 123] | 2 µg/mL (≈ 5.05 µM) | 64 µg/mL (≈ 161 µM) | 2 µg/mL (≈ 5.05 µM) | 8 µg/mL (≈ 20.2 µM) | 64 µg/mL (≈ 161 µM) | 16 µg/mL (≈ 40.4 µM) | > 16 µg/mL | > 16 µg/mL | 8 µg/mL (≈ 20.2 µM) | 8 µg/mL (≈ 20.2 µM) | > 16 µg/mL | 8 µg/mL (≈ 20.2 µM) | 2 µg/mL (≈ 5.05 µM) | 64 µg/mL (≈ 161 µM) | > 16 µg/mL | > 16 µg/mL | 1 µg/mL (≈ 2.52 µM) | 0.5 µg/mL (≈ 1.26 µM) | 4 µg/mL (≈ 10.1 µM) | 2 µg/mL (≈ 5.05 µM) | MIC [31, 33]: 1 µg/mL (≈ 2.52 µM); MIC [21]: 4 µg/mL (≈ 10.1 µM); MIC [22]: 4 µg/mL (≈ 10.1 µM); MIC [23]: 1 µg/mL (≈ 2.52 µM); MIC [24]: 8 µg/mL (≈ 20.2 µM); MIC [25]: 2 µg/mL (≈ 5.05 µM); MIC [26]: 8 µg/mL (≈ 20.2 µM); MIC [27]: 16 µg/mL (≈ 40.4 µM); MIC [28]: 2 µg/mL (≈ 5.05 µM); MIC [29]: 0.5 µg/mL (≈ 1.26 µM); MIC [30]: 4 µg/mL (≈ 10.1 µM)
CN1CCN(c2cc3c(cc2F)c(=O)c(C(=O)O)cn3C2CC2)CC1C1CC1 (centres unmarked) [Example 125, 1-Cyclopropyl-7-(3-cyclopropyl-4-methyl-1-piperazinyl) -6-fluoro-1,4-dihydro-4-oxo-3-quinolinecarboxylic acid] | 0.25 µg/mL (≈ 0.649 µM) | 16 µg/mL (≈ 41.5 µM) | 0.06 µg/mL (≈ 0.156 µM) | 0.5 µg/mL (≈ 1.3 µM) | 8 µg/mL (≈ 20.8 µM) | 4 µg/mL (≈ 10.4 µM) | > 16 µg/mL | 4 µg/mL (≈ 10.4 µM) | 0.5 µg/mL (≈ 1.3 µM) | 0.5 µg/mL (≈ 1.3 µM) | 16 µg/mL (≈ 41.5 µM) | 1 µg/mL (≈ 2.59 µM) | 0.25 µg/mL (≈ 0.649 µM) | 8 µg/mL (≈ 20.8 µM) | 2 µg/mL (≈ 5.19 µM) | 16 µg/mL (≈ 41.5 µM) | 0.5 µg/mL (≈ 1.3 µM) | 0.25 µg/mL (≈ 0.649 µM) | 0.5 µg/mL (≈ 1.3 µM) | 1 µg/mL (≈ 2.59 µM) | MIC ([31]; 18 hours): 0.06 µg/mL (≈ 0.156 µM); MIC [31, 33]: 0.03 µg/mL (≈ 0.0778 µM); MIC [16]: 0.25 µg/mL (≈ 0.649 µM); MIC [21]: 0.25 µg/mL (≈ 0.649 µM); MIC [22]: 0.25 µg/mL (≈ 0.649 µM); MIC [23]: 0.06 µg/mL (≈ 0.156 µM); MIC [24]: 1 µg/mL (≈ 2.59 µM); MIC [25]: 0.5 µg/mL (≈ 1.3 µM); MIC [26]: 4 µg/mL (≈ 10.4 µM); MIC [27]: 4 µg/mL (≈ 10.4 µM); MIC [28]: 0.5 µg/mL (≈ 1.3 µM); MIC [29]: 0.12 µg/mL (≈ 0.311 µM); MIC [30]: 0.25 µg/mL (≈ 0.649 µM)
